From PubChem BioAssay AID328 (DTP/NCI, 2004) come the findings set out here.

Several values for one entry are separate records, joined by “and”; a condition that tells them apart may be missing. Equal values may be shown once. Inconclusive results and toxic doses are left out.

The subject of the assay is BDF1 mice, P388 leukemia ip, median survival T/C. The experiment in a line: NCI In Vivo Anticancer Drug Screen. Data for tumor model P388 Leukemia (intraperitoneal) in B6D2F1 (BDF1) mice. Particulars: endpoint: median survival time, higher = longer survival. An outline of the steps:
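Mice carrying the transplantable tumour receive compound or vehicle. Survival is followed in each arm, and the treated measure is divided by the vehicle measure.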

[1] abbreviates: dose: 50.0 mg/kg/injection, schedule: Q01DX009 (ip), vehicle: saline with Tween-80.
Setting [2] is: dose: 200.0 mg/kg/injection, schedule: Q04DX003 (ip), vehicle: saline with Tween-80.
Setting [3] is: dose: 100.0 mg/kg/injection, schedule: Q01DX009 (ip), vehicle: saline with Tween-80.
Where [4] appears, read: dose: 100.0 mg/kg/injection, schedule: Q04DX003 (ip), vehicle: saline with Tween-80.
The mark [5] stands for this setting: dose: 200.0 mg/kg/injection, schedule: Q01DX009 (ip), vehicle: saline with Tween-80.
The mark [6] stands for this setting: dose: 400.0 mg/kg/injection, schedule: Q04DX003 (ip), vehicle: saline with Tween-80.
The mark [7] stands for this setting: dose: 100.0 mg/kg/injection, schedule: Q01DX009 (ip), vehicle: Klucel (hydroxypropylcellulose) (HPC).
Where [8] appears, read: dose: 100.0 mg/kg/injection, schedule: Q04DX003 (ip), vehicle: saline.
Where [9] appears, read: dose: 200.0 mg/kg/injection, schedule: Q01DX009 (ip), vehicle: Klucel (hydroxypropylcellulose) (HPC).
Setting [10] is: dose: 400.0 mg/kg/injection, schedule: Q01DX009 (ip), vehicle: Klucel (hydroxypropylcellulose) (HPC).
Where [11] appears, read: dose: 400.0 mg/kg/injection, schedule: Q04DX003 (ip), vehicle: saline.
Where [12] appears, read: dose: 100.0 mg/kg/injection, schedule: Q01DX001 (ip), vehicle: Klucel (hydroxypropylcellulose) (HPC).
The mark [13] stands for this setting: dose: 200.0 mg/kg/injection, schedule: Q01DX001 (ip), vehicle: Klucel (hydroxypropylcellulose) (HPC).

With `CC(=O)OCC1OC(n2cnc3c(=S)nc(N)[nH]c32)C(OC(C)=O)C1OC(C)=O` (stereo not given), the T/C by setting is: (dose: 3.5 mg/kg/injection, schedule: Q01DX009 (ip), vehicle: saline with Tween-80) 113 % of control; (dose: 5.2 mg/kg/injection, schedule: Q01DX009 (ip), vehicle: saline with Tween-80) 122 % of control; (dose: 12.0 mg/kg/injection, schedule: Q01DX009 (ip), vehicle: saline with Tween-80) 90 % of control; (dose: 18.0 mg/kg/injection, schedule: Q01DX009 (ip), vehicle: saline with Tween-80) 100 % of control; (dose: 26.0 mg/kg/injection, schedule: Q01DX009 (ip), vehicle: saline with Tween-80) 90 % of control; (dose: 40.0 mg/kg/injection, schedule: Q01DX009 (ip), vehicle: saline with Tween-80) 90 % of control. The T/C by setting is: under setting [1], 90 % of control; (dose: 132.0 mg/kg/injection, schedule: Q04DX003 (ip), vehicle: saline with Tween-80) 100 % of control; under setting [2], 166 % of control.
As to `C[C@@H]1CC2=CC(=O)CC[C@]2(C)[C@H]2CC[C@]3(C)[C@@H](O)CC[C@H]3[C@H]12`, the T/C under setting [3] is 100 % of control; the T/C under setting [4] is 100 % of control; the T/C under setting [5] was 95 % of control; the T/C under setting [2] is 109 % of control; the T/C (dose: 400.0 mg/kg/injection, schedule: Q01DX009 (ip), vehicle: saline with Tween-80) is 90 % of control; the T/C under setting [6] was 95 % of control.
In the case of `c1ccn2c(CSCc3nnc4ccccn34)nnc2c1`, the T/C under setting [1] is 100 % of control, the T/C under setting [3] was 109 % of control and the T/C under setting [5] was 109 % of control.
Consider `Cn1c(=O)c(S(C)=O)c(O)c2ccccc21` (stereo not given), for which the T/C under setting [1] is 118 % of control, the T/C under setting [3] is 100 % of control and the T/C under setting [5] was 112 % of control.
As to `CN(C)c1ccc(/C=C/c2ccnc3c(-c4ccccc4)cccc23)cc1`, the T/C under setting [1] was 89 % of control and the T/C under setting [3] is 91 % of control.
Consider `O=NN(CCBr)C(=O)NCCBr`, for which the T/C is, setting by setting: (dose: 30.0 mg/kg/injection, schedule: Q01DX009 (ip), vehicle: gum acacia) 158 % of control; (dose: 44.0 mg/kg/injection, schedule: Q01DX009 (ip), vehicle: gum acacia) 158 % of control; (dose: 50.0 mg/kg/injection, schedule: Q01DX009 (ip), vehicle: gum acacia) 196 % of control; (dose: 67.0 mg/kg/injection, schedule: Q01DX009 (ip), vehicle: gum acacia) 169 % of control and 191 % of control; (dose: 67.0 mg/kg/injection, schedule: Q04DX003 (ip), vehicle: gum acacia) 165 % of control; under setting [7], 112 % of control. In addition, the T/C (dose: 100.0 mg/kg/injection, schedule: Q01DX009 (ip), vehicle: gum acacia) is 192 % of control and 200 % of control; the T/C (dose: 100.0 mg/kg/injection, schedule: Q04DX003 (ip), vehicle: gum acacia) was 173 % of control; the T/C under setting [8] was 118 % of control; the T/C (dose: 150.0 mg/kg/injection, schedule: Q01DX009 (ip), vehicle: gum acacia) is 226 % of control; the T/C (dose: 150.0 mg/kg/injection, schedule: Q04DX003 (ip), vehicle: gum acacia) is 230 % of control; the T/C under setting [9] was 154 % of control. Besides, the T/C by setting is: under setting [10], 170 % of control; under setting [11], 190 % of control.
On to `O=C(CBr)NCC1OC(n2cnc3c(=O)[nH]cnc32)C(O)C1O` (stereo not given), for which the T/C (dose: 50.0 mg/kg/injection, schedule: Q01DX001 (ip), vehicle: Klucel (hydroxypropylcellulose) (HPC)) is 109 % of control; the T/C under setting [12] was 101 % of control; the T/C under setting [13] is 106 % of control.
On to `CC(=O)OC1(C)CC(C)(C)N=[N+]1[O-]` (stereo not given), for which the T/C runs as follows: (dose: 12.5 mg/kg/injection, schedule: Q01DX005 (ip), vehicle: other) 103 % of control; (dose: 25.0 mg/kg/injection, schedule: Q01DX005 (ip), vehicle: other) 103 % of control; (dose: 50.0 mg/kg/injection, schedule: Q01DX005 (ip), vehicle: other) 121 % of control; (dose: 100.0 mg/kg/injection, schedule: Q01DX005 (ip), vehicle: other) 103 % of control; (dose: 200.0 mg/kg/injection, schedule: Q01DX005 (ip), vehicle: other) 109 % of control.
Take `O=C(CCCN1CCC(C(=O)c2ccc(Cl)cc2)CC1)c1ccc(F)cc1`: the T/C (dose: 12.5 mg/kg/injection, schedule: Q01DX009 (ip), vehicle: Klucel (hydroxypropylcellulose) (HPC)) was 112 % of control.
As for `CC1(C2CC(=O)c3c(O)ccc(O)c3C2)OCCO1` (stereo not given), the T/C by setting is: (dose: 25.0 mg/kg/injection, schedule: Q01DX009 (ip), vehicle: other) 107 % of control; (dose: 50.0 mg/kg/injection, schedule: Q01DX009 (ip), vehicle: other) 100 % of control; (dose: 100.0 mg/kg/injection, schedule: Q01DX009 (ip), vehicle: other) 98 % of control; (dose: 200.0 mg/kg/injection, schedule: Q01DX009 (ip), vehicle: other) 98 % of control; (dose: 400.0 mg/kg/injection, schedule: Q01DX009 (ip), vehicle: other) 116 % of control.
Turning to `FC(F)(F)c1nc2nc(Cl)c(Cl)nc2n1CCCN1CCOCC1`, the T/C under setting [4] is 105 % of control, the T/C under setting [2] is 115 % of control and the T/C under setting [6] was 110 % of control.
In the case of `Cc1cc2c(C(C)C)c(O)c(O)cc2c(O)c1-c1c(C)cc2c(C(C)C)c(O)c(O)cc2c1O`, the T/C was 91 % of control (dose: 12.5 mg/kg/injection, schedule: Q01DX009 (ip), vehicle: saline with Tween-80); 100 % of control (dose: 25.0 mg/kg/injection, schedule: Q01DX009 (ip), vehicle: saline with Tween-80); 120 % of control under setting [1].
`COc1ccc(/C(C#N)=C2C=C(Cl)/C(=N/O)C=C/2Cl)cc1`: the T/C by setting is: under setting [12], 90 % of control; under setting [7], 95 % of control; under setting [13], 90 % of control; under setting [9], 87 % of control; (dose: 400.0 mg/kg/injection, schedule: Q01DX001 (ip), vehicle: Klucel (hydroxypropylcellulose) (HPC)) 86 % of control; under setting [10], 104 % of control.
For the compound `Cc1c[n+]2ccccc2n1C`, the T/C runs as follows: (dose: 25.0 mg/kg/injection, schedule: Q01DX009 (ip), vehicle: saline) 100 % of control; (dose: 50.0 mg/kg/injection, schedule: Q01DX009 (ip), vehicle: saline) 104 % of control.
Turning to `C(#Cc1ccccc1)COCC1CO1` (stereo not given), the T/C is 116 % of control under setting [3]; 90 % of control under setting [8]; 90 % of control (dose: 200.0 mg/kg/injection, schedule: Q04DX003 (ip), vehicle: saline); 120 % of control under setting [11].
Consider `CC(=O)c1ccccc1OS(=O)(=O)c1ccc([N+](=O)[O-])cc1`, for which the T/C reads like this: (dose: 100.0 mg/kg/injection, schedule: Q01DX009 (ip), vehicle: saline sonified) 95 % of control; (dose: 100.0 mg/kg/injection, schedule: Q04DX003 (ip), vehicle: saline sonified) 100 % of control; (dose: 200.0 mg/kg/injection, schedule: Q01DX009 (ip), vehicle: saline sonified) 104 % of control; (dose: 200.0 mg/kg/injection, schedule: Q04DX003 (ip), vehicle: saline sonified) 90 % of control; (dose: 400.0 mg/kg/injection, schedule: Q04DX003 (ip), vehicle: saline sonified) 100 % of control.
In the case of `O=[N+]([O-])C(Br)(c1ccccc1)S(=O)(=O)Cc1ccccc1` (stereo not given), the T/C is, setting by setting: (dose: 100.0 mg/kg/injection, schedule: Q04DX003 (ip), vehicle: Klucel (hydroxypropylcellulose) (HPC)) 104 % of control; (dose: 200.0 mg/kg/injection, schedule: Q04DX003 (ip), vehicle: Klucel (hydroxypropylcellulose) (HPC)) 108 % of control; (dose: 400.0 mg/kg/injection, schedule: Q04DX003 (ip), vehicle: Klucel (hydroxypropylcellulose) (HPC)) 108 % of control.
`COc1ccc(C=Nc2ccccc2)cc1`: the T/C by setting is: under setting [4], 100 % of control; under setting [2], 100 % of control; under setting [6], 100 % of control.
